{
  "source": "PubChem BioAssay (NCI)",
  "note": "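Grown in 96-well plates, cells were treated for 48 hours with each compound at five concentrations. Insufficient inhibition: endpoint recorded as highest concentration tested. TGI marks complete inhibition of growth.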",
  "data": [
    {"test_system": "T-47D breast", "assay": "DTP human tumour cell line panel, 48 h", "units": {"TGI": "µM"}, "values": [
      {"smiles": "CC(C)(C)OC(=O)N1CCCC1C(=O)NC(c1ccccc1)c1ccccc1", "note": "(centres undefined)", "TGI": "> 100"},
      {"smiles": "Cc1[nH]c(-c2ccccc2)c2nc(N(C)C)oc(=O)c12", "TGI": "> 100"},
      {"smiles": "O=C1Cc2cn[nH]c2-c2ccccc2N1", "TGI": "> 100"},
      {"smiles": "O=CNc1ccccc1OCCOc1ccccc1NC=O", "TGI": "> 100"},
      {"smiles": "CCOC(=O)c1c[nH]c(C(=O)C=[N+]=[N-])c1C1CCN(CC)C1=S", "note": "(centres undefined)", "TGI": "> 100"},
      {"smiles": "Cc1ccc2nc(NS(=O)(=O)c3cc(C)c(Cl)cc3S)[nH]c2c1", "TGI": "> 100"},
      {"smiles": "O=C1CSC(c2ccccc2O)N1c1ccc(-n2c(-c3ccccc3)nc3ccccc3c2=O)cc1", "note": "(centres undefined)", "TGI": 65.8},
      {"smiles": "Cc1ccc(C(=O)Oc2ccccc2)cc1N=NN(C)C", "TGI": "> 100"},
      {"smiles": "O=C1NC2(CCNCC2)Oc2ccccc21", "TGI": "> 100"},
      {"smiles": "O=[N+]([O-])c1cccc2nccc(NCCN3CCOCC3)c12", "TGI": "> 100"},
      {"smiles": "O=C1NC(N/N=C\\c2ccccc2)=N/C1=C/c1ccccc1", "TGI": "> 100"},
      {"smiles": "Cc1ccc(S(=O)(=O)N2CCNCCN(S(=O)(=O)c3ccc(C)cc3)CCNCC2)cc1", "TGI": 31.7},
      {"smiles": "CN=c1sc2nc(C#N)c(C#N)nc2n1C", "TGI": "> 91.7"}
    ]},
    {"test_system": "HOP-92 NSCLC", "assay": "DTP human tumour cell line panel, 48 h", "units": {"TGI": "µM"}, "values": [
      {"smiles": "C=C1C(=O)O[C@H]2C1C[C@H](O)[C@@]1(C)OC1CC[C@@]1(C)O[C@H]21", "note": "(some centres undefined)", "TGI": 36.5},
      {"smiles": "O=C(NCCNCCNC(=O)c1cc(-c2ccccc2)nc2ccccc12)c1cc(-c2ccccc2)nc2ccccc12", "TGI": 6.17},
      {"smiles": "CC1=NN(c2nc(N)nc(/C(C#N)=C\\c3ccc(-c4ccc([N+](=O)[O-])cc4)o3)n2)C(C)(C)C1", "TGI": "> 100"},
      {"smiles": "CCOC(=O)c1nc2ccc(C(F)(F)F)cc2nc1Nc1ccc(OC)cc1", "TGI": 49.2},
      {"smiles": "COc1ccc2nc3ccc(OC)cc3c(SCCCl)c2c1", "TGI": "> 42.2"},
      {"smiles": "CCOC(=O)C(=CNc1ccc(F)c(F)c1)C(=O)OCC", "TGI": "> 100"},
      {"smiles": "CC(Oc1ccccc1Cl)C(=O)NN1C(=O)CC(=O)N(c2ccc(Cl)cc2)C1=S", "note": "(centres undefined)", "TGI": 63.2},
      {"smiles": "CC(C)(O)c1cc2c(cc1C(C)(C)O)-c1ccccc1-2", "TGI": "> 100"},
      {"smiles": "CC(C)[Si]1(C(C)C)OCC2OC(n3ccc(=O)[nH]c3=O)C([Se]c3ccccc3)C2O[Si](C(C)C)(C(C)C)O1", "note": "(centres undefined)", "TGI": 13},
      {"smiles": "CN(N=O)c1nc2c(C(N)=O)ncn2s1", "TGI": "> 100"},
      {"smiles": "CC(Oc1ccc(Cl)cc1Cl)C(=O)NN1C(=O)CC(=O)N(c2ccccc2)C1=S", "note": "(centres undefined)", "TGI": 84},
      {"smiles": "CC(C)(C)OC(=O)N1CCCC1C(=O)NC(c1ccccc1)c1ccccc1", "note": "(centres undefined)", "TGI": "> 100"},
      {"smiles": "Cc1[nH]c(-c2ccccc2)c2nc(N(C)C)oc(=O)c12", "TGI": "> 100"},
      {"smiles": "O=C1Cc2cn[nH]c2-c2ccccc2N1", "TGI": "> 30.7"},
      {"smiles": "O=CNc1ccccc1OCCOc1ccccc1NC=O", "TGI": "> 100"},
      {"smiles": "CCOC(=O)c1c[nH]c(C(=O)C=[N+]=[N-])c1C1CCN(CC)C1=S", "note": "(centres undefined)", "TGI": "> 100"},
      {"smiles": "Cc1ccc2nc(NS(=O)(=O)c3cc(C)c(Cl)cc3S)[nH]c2c1", "TGI": "> 100"},
      {"smiles": "O=C1CSC(c2ccccc2O)N1c1ccc(-n2c(-c3ccccc3)nc3ccccc3c2=O)cc1", "note": "(centres undefined)", "TGI": 76.5},
      {"smiles": "Cc1ccc(C(=O)Oc2ccccc2)cc1N=NN(C)C", "TGI": "> 100"},
      {"smiles": "O=C1NC2(CCNCC2)Oc2ccccc21", "TGI": "> 100"},
      {"smiles": "O=[N+]([O-])c1cccc2nccc(NCCN3CCOCC3)c12", "TGI": "> 100"},
      {"smiles": "O=C1NC(N/N=C\\c2ccccc2)=N/C1=C/c1ccccc1", "TGI": 66.6},
      {"smiles": "Cc1ccc(S(=O)(=O)N2CCNCCN(S(=O)(=O)c3ccc(C)cc3)CCNCC2)cc1", "TGI": 46.7},
      {"smiles": "CN=c1sc2nc(C#N)c(C#N)nc2n1C", "TGI": 37.7}
    ]},
    {"test_system": "HCC-2998 colon", "assay": "DTP human tumour cell line panel, 48 h", "units": {"TGI": "µM"}, "values": [
      {"smiles": "C=C1C(=O)O[C@H]2C1C[C@H](O)[C@@]1(C)OC1CC[C@@]1(C)O[C@H]21", "note": "(some centres undefined)", "TGI": 28.5},
      {"smiles": "O=C(NCCNCCNC(=O)c1cc(-c2ccccc2)nc2ccccc12)c1cc(-c2ccccc2)nc2ccccc12", "TGI": 3.14},
      {"smiles": "CC1=NN(c2nc(N)nc(/C(C#N)=C\\c3ccc(-c4ccc([N+](=O)[O-])cc4)o3)n2)C(C)(C)C1", "TGI": "> 100"},
      {"smiles": "CCOC(=O)c1nc2ccc(C(F)(F)F)cc2nc1Nc1ccc(OC)cc1", "TGI": "> 100"},
      {"smiles": "COc1ccc2nc3ccc(OC)cc3c(SCCCl)c2c1", "TGI": "> 100"},
      {"smiles": "CCOC(=O)C(=CNc1ccc(F)c(F)c1)C(=O)OCC", "TGI": "> 100"},
      {"smiles": "CC(Oc1ccccc1Cl)C(=O)NN1C(=O)CC(=O)N(c2ccc(Cl)cc2)C1=S", "note": "(centres undefined)", "TGI": "> 100"},
      {"smiles": "CC(C)(O)c1cc2c(cc1C(C)(C)O)-c1ccccc1-2", "TGI": "> 100"},
      {"smiles": "CC(C)[Si]1(C(C)C)OCC2OC(n3ccc(=O)[nH]c3=O)C([Se]c3ccccc3)C2O[Si](C(C)C)(C(C)C)O1", "note": "(centres undefined)", "TGI": 3},
      {"smiles": "CN(N=O)c1nc2c(C(N)=O)ncn2s1", "TGI": "> 100"},
      {"smiles": "CC(Oc1ccc(Cl)cc1Cl)C(=O)NN1C(=O)CC(=O)N(c2ccccc2)C1=S", "note": "(centres undefined)", "TGI": "> 100"},
      {"smiles": "CC(C)(C)OC(=O)N1CCCC1C(=O)NC(c1ccccc1)c1ccccc1", "note": "(centres undefined)", "TGI": "> 100"},
      {"smiles": "Cc1[nH]c(-c2ccccc2)c2nc(N(C)C)oc(=O)c12", "TGI": "> 100"},
      {"smiles": "O=C1Cc2cn[nH]c2-c2ccccc2N1", "TGI": 67.3},
      {"smiles": "O=CNc1ccccc1OCCOc1ccccc1NC=O", "TGI": "> 100"},
      {"smiles": "CCOC(=O)c1c[nH]c(C(=O)C=[N+]=[N-])c1C1CCN(CC)C1=S", "note": "(centres undefined)", "TGI": "> 100"},
      {"smiles": "Cc1ccc2nc(NS(=O)(=O)c3cc(C)c(Cl)cc3S)[nH]c2c1", "TGI": "> 100"},
      {"smiles": "O=C1CSC(c2ccccc2O)N1c1ccc(-n2c(-c3ccccc3)nc3ccccc3c2=O)cc1", "note": "(centres undefined)", "TGI": "> 100"},
      {"smiles": "Cc1ccc(C(=O)Oc2ccccc2)cc1N=NN(C)C", "TGI": "> 100"},
      {"smiles": "O=C1NC2(CCNCC2)Oc2ccccc21", "TGI": "> 100"},
      {"smiles": "O=[N+]([O-])c1cccc2nccc(NCCN3CCOCC3)c12", "TGI": 26.4},
      {"smiles": "O=C1NC(N/N=C\\c2ccccc2)=N/C1=C/c1ccccc1", "TGI": 40}
    ]}
  ]
}
